The values that follow come from ChEMBL document CHEMBL1137222, “Architecture of P2Y nucleotide receptors: structural comparison based on sequence analysis, mutagenesis, and homology modeling” (J Med Chem, 2004).

Holding throughout (assay type): cell-based
For test [1], the target named is P2Y purinoceptor 1 (Homo sapiens, UniProt P47900). As to the kind of experiment: Inhibition concentration required against wild type strain P2Y1 receptor expressed in COS-7 cells is determined using [3H]-MRS2279 as radioligand.
Sequence of P2Y purinoceptor 1 (Homo sapiens, UniProt P47900) (P47900 whole entry): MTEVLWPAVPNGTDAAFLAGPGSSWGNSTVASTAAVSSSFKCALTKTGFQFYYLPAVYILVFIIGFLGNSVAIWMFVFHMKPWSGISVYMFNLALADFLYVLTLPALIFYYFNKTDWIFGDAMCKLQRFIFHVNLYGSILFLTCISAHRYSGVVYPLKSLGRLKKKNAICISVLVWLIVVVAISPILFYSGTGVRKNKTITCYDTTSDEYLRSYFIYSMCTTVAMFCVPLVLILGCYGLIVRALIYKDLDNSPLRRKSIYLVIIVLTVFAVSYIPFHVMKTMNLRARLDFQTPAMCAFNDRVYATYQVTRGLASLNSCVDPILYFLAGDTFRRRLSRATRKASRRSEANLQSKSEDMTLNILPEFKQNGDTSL
The target in test [2] is P2Y purinoceptor 1 (Homo sapiens, UniProt P47900, Y203A). As to the kind of experiment: Inhibition concentration required against human Y203A (EL2) mutant strain P2Y1 receptor expressed in COS-7 cells is determined using [3H]MRS2279 as radioligand.
Sequence of P2Y purinoceptor 1 (Homo sapiens, UniProt P47900, Y203A) (P47900 whole entry Y203A): as the sequence (P47900 whole entry) above, with Y203A counted along it
Test [3] has as its target P2Y purinoceptor 1 (Homo sapiens, UniProt P47900, Y203F). As to the kind of experiment: Inhibition concentration required against human Y203F mutant strain P2Y1 receptor expressed in COS-7 cells is determined using [3H]MRS2279 as radioligand.
The target of test [4] is P2Y purinoceptor 1 (Homo sapiens, UniProt P47900, Y273A). Nature of the test: Inhibition concentration required against human Y273A mutant strain P2Y1 receptor expressed in COS-7 cells is determined using [3H]-MRS2279 as radioligand.
Sequence of P2Y purinoceptor 1 (Homo sapiens, UniProt P47900, Y273A) (P47900 whole entry Y273A): as the sequence (P47900 whole entry) above, with Y273A counted along it
Test [5] deals with P2Y purinoceptor 1 (Homo sapiens, UniProt P47900, Y273F). As to the kind of experiment: Inhibition concentration required against human Y273F mutant strain P2Y1 receptor expressed in COS-7 cells is determined using [3H]MRS2279 as radioligand.
Sequence of P2Y purinoceptor 1 (Homo sapiens, UniProt P47900, Y273F) (P47900 whole entry Y273F): as the sequence (P47900 whole entry) above, with Y273F counted along it
Test [6] has as its target P2Y purinoceptor 1 (Homo sapiens, UniProt P47900, Y306A). Nature of the test: Inhibition concentration required against human Y306A mutant strain P2Y1 receptor expressed in COS-7 cells is determined using [3H]MRS2279 as radioligand.
The target in test [7] is P2Y purinoceptor 1 (Homo sapiens, UniProt P47900, Y306F). As to the kind of experiment: Inhibition concentration required against human Y306F mutant strain P2Y1 receptor expressed in COS-7 cells is determined using [3H]MRS2279 as radioligand.
Sequence of P2Y purinoceptor 1 (Homo sapiens, UniProt P47900, Y306F) (P47900 whole entry Y306F): as the sequence (P47900 whole entry) above, with Y306F counted along it

Sequence of P2Y purinoceptor 1 (Homo sapiens, UniProt P47900, Y203F) (P47900 whole entry Y203F): as the sequence (P47900 whole entry) above, with Y203F counted along it
Sequence of P2Y purinoceptor 1 (Homo sapiens, UniProt P47900, Y306A) (P47900 whole entry Y306A): as the sequence (P47900 whole entry) above, with Y306A counted along it

A word on the IC50: it is the concentration at which inhibition is half-maximal. Consider `CNc1ncnc2c1ncn2[C@H]1CC(OP(=O)(O)O)[C@@H](COP(=O)(O)O)O1` (single isomer, unassigned), for which the IC50 is 0.21 µM at P2Y purinoceptor 1 [1]; 0.74 µM on P2Y purinoceptor 1 [2]; 0.33 µM on P2Y purinoceptor 1 [3]; 0.48 µM on P2Y purinoceptor 1 [4]; 0.66 µM at P2Y purinoceptor 1 [5]; 0.32 µM on P2Y purinoceptor 1 [6]. Besides, at P2Y purinoceptor 1 [7], the IC50 was determined as 0.98 µM.
